Test systems include A549 NSCLC; RXF 393 renal; A498 renal; NCI-H522 lung; HCT-15 colon; MDA-MB-435; CAKI-1 renal; ACHN renal.
Common to all, as to test: inhibition of tumour cell growth, NCI panel, 48 h

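Growth conditions: 96-well plates. Treatment: test compound, 48 hours, 5 concentrations. Analysis: linear interpolation between bracketing concentrations; unreached endpoints set to highest concentration. GI50 is the concentration that inhibits growth by half. TGI marks complete inhibition of growth.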

The record followed here is PubChem BioAssay (NCI).

On to `O=[N+]([O-])c1ccc(Br)c([N+](=O)[O-])c1`, for which the GI50 was 4.12 µM in the experiment with A549 NSCLC; 1.83 µM in the experiment on RXF 393 renal; 14.3 µM with A498 renal; 0.163 µM with NCI-H522 lung; 1.93 µM in the experiment on HCT-15 colon; 1.85 µM in the experiment with MDA-MB-435. The GI50 is 0.406 µM with CAKI-1 renal and 1.8 µM with ACHN renal. The TGI amounted to 16.4 µM with A549 NSCLC; 3.36 µM in the experiment with RXF 393 renal; 27.7 µM in the experiment with A498 renal; 0.355 µM with NCI-H522 lung; 4.59 µM with HCT-15 colon; 3.58 µM in the experiment on MDA-MB-435. Also, the results for the TGI in the experiment with CAKI-1 renal and in the experiment on ACHN renal were 0.954 µM and 3.48 µM, respectively.
Turning to `COc1ccc(CCN2C(=O)C=CC2=O)cc1OC`, the TGI in the experiment on A549 NSCLC turned out to be 50.2 µM; in the experiment with RXF 393 renal, 19.9 µM; in the experiment on A498 renal it was 33.1 µM; in the experiment on NCI-H522 lung it was 3.17 µM; in the experiment with HCT-15 colon it was 3.83 µM; with MDA-MB-435, 34 µM. The TGI is 27.4 µM in the experiment on CAKI-1 renal and 3.17 µM in the experiment with ACHN renal.
For the compound `O=C(Nc1ccccc1O)c1cccc(NC2=C(Cl)C(=O)N(Cc3ccccc3)C2=O)c1`, the GI50 in the experiment with A549 NSCLC was 12.4 µM; in the experiment on RXF 393 renal it was 1.89 µM; in the experiment on A498 renal, 14.2 µM; in the experiment on NCI-H522 lung, 9.02 µM; in the experiment with HCT-15 colon, 2.02 µM; in the experiment on MDA-MB-435 it was 6.03 µM. Also, the GI50 in the experiment with CAKI-1 renal is 5.12 µM; with ACHN renal, 4.73 µM. For the same compound, the TGI in the experiment on A549 NSCLC came to 24.8 µM; in the experiment on RXF 393 renal, 5.28 µM; with A498 renal, 27.7 µM; in the experiment on NCI-H522 lung it was 28.5 µM; in the experiment on HCT-15 colon, 5.13 µM; in the experiment on MDA-MB-435 it was 17.7 µM. Besides, the TGI with CAKI-1 renal was 12.7 µM; in the experiment with ACHN renal, 15.7 µM.
`C[n+]1c(/C=C\c2ccc(Cl)cc2)ccc2ccccc21`: the GI50 in the experiment with A549 NSCLC was 1.04 µM; in the experiment with RXF 393 renal, 31.8 µM; in the experiment with A498 renal, 4.02 µM; in the experiment with NCI-H522 lung, 12.4 µM; in the experiment with HCT-15 colon, 53.2 µM; with MDA-MB-435, 21.5 µM. Also, the GI50 is 66.6 µM in the experiment with CAKI-1 renal and 81.6 µM with ACHN renal. For the same compound, the TGI was above 100 µM in the experiment on A549 NSCLC; 98.3 µM in the experiment with RXF 393 renal; 91.3 µM with A498 renal; 89.4 µM in the experiment with NCI-H522 lung; above 100 µM in the experiment with HCT-15 colon; 66.4 µM with MDA-MB-435. For the same compound, the TGI with CAKI-1 renal and in the experiment with ACHN renal was above 100 µM throughout.
On to `CCOc1cccc(/C=N/NC(=O)c2ccc(Nc3ccnc(C(F)(F)F)c3)cc2)c1O`, for which the GI50 with A549 NSCLC was 2.13 µM; in the experiment with RXF 393 renal, 2.97 µM; in the experiment on A498 renal it was 4.65 µM; in the experiment with NCI-H522 lung, 16.9 µM; with HCT-15 colon, 0.515 µM; with MDA-MB-435, 6.19 µM. Further, the GI50 is 1.36 µM in the experiment with CAKI-1 renal and 0.728 µM with ACHN renal. Also, the TGI in the experiment on A549 NSCLC is above 69.1 µM; in the experiment with RXF 393 renal, above 49.2 µM; with A498 renal it was above 58 µM; in the experiment with NCI-H522 lung it was above 82.8 µM; in the experiment with HCT-15 colon it was above 100 µM; in the experiment with MDA-MB-435, above 100 µM. The TGI with CAKI-1 renal was above 100 µM; in the experiment with ACHN renal it was above 79.1 µM.
As for `O=C(CN1CCN(c2ncnc3ccccc23)CC1)Nc1ccc(Cl)cc1C(=O)c1ccccc1Cl`, the GI50 in the experiment with A549 NSCLC was 2.66 µM; in the experiment with RXF 393 renal, 0.61 µM; in the experiment with A498 renal, 1.5 µM; in the experiment on NCI-H522 lung, 0.258 µM; in the experiment on HCT-15 colon, 3.12 µM; with MDA-MB-435, 0.589 µM. Also, the GI50 with CAKI-1 renal is 1.46 µM; with ACHN renal, 1.67 µM. Also, the TGI was above 100 µM in the experiment on A549 NSCLC; 1.31 µM in the experiment on RXF 393 renal; 3.69 µM in the experiment with A498 renal; 1.55 µM with NCI-H522 lung; 10.8 µM with HCT-15 colon; 2 µM in the experiment on MDA-MB-435. The results for the TGI in the experiment with CAKI-1 renal and in the experiment on ACHN renal were 7.01 µM and 18.7 µM, respectively.
As to `CC(=O)N1c2ccccc2C23CCN(C)CC4C(C)OCC(C4CC2=O)C13` (stereo not given), the TGI in the experiment with A549 NSCLC, in the experiment with RXF 393 renal, with A498 renal, in the experiment with NCI-H522 lung, in the experiment with HCT-15 colon and in the experiment with MDA-MB-435 was above 100 µM in each case. Further, the TGI in the experiment on CAKI-1 renal and with ACHN renal was above 100 µM throughout.
For `N#C/C(=C\c1ccc(-c2ccc(Cl)cc2)o1)C(=O)Nc1ncc(Cc2ccc(Cl)cc2)s1`, the GI50 in the experiment with A549 NSCLC was 1.33 µM; with RXF 393 renal, 2.32 µM; in the experiment on A498 renal, 1.58 µM; with NCI-H522 lung, 1.94 µM; with HCT-15 colon, 2.3 µM; with MDA-MB-435 it was 2.65 µM. For the same compound, the GI50 in the experiment with CAKI-1 renal was 1.63 µM; in the experiment on ACHN renal, 1.59 µM. In addition, the TGI in the experiment on A549 NSCLC is 3.05 µM; in the experiment on RXF 393 renal it was 6.85 µM; in the experiment on A498 renal, 4.19 µM; in the experiment with NCI-H522 lung, 4.86 µM; in the experiment on HCT-15 colon, above 100 µM; in the experiment on MDA-MB-435, above 100 µM. The TGI in the experiment on CAKI-1 renal is 3.46 µM; in the experiment on ACHN renal it was 3.43 µM.
As to `COc1cc(-c2nc(Nc3nc4ccccc4[nH]3)nc(N)c2C#N)cc(OC)c1OC`, the GI50 in the experiment with A549 NSCLC was 30.7 µM; with RXF 393 renal it was 0.378 µM; in the experiment with A498 renal it was 0.424 µM; in the experiment on NCI-H522 lung, 0.45 µM; in the experiment on HCT-15 colon, 18.1 µM; with MDA-MB-435, 0.0886 µM. The figures for the GI50 with CAKI-1 renal and in the experiment with ACHN renal were 6.04 µM and 14.5 µM, respectively. For the same compound, the TGI in the experiment with A549 NSCLC is above 100 µM; in the experiment with RXF 393 renal, 23.7 µM; with A498 renal, 22 µM; in the experiment on NCI-H522 lung, 3.61 µM; in the experiment on HCT-15 colon it was above 100 µM; in the experiment with MDA-MB-435, 16.7 µM. Further, the figures for the TGI with CAKI-1 renal and in the experiment with ACHN renal were above 60.6 µM and above 100 µM, respectively.
Turning to `COC(=O)Nc1nc2ccc(Oc3ccc(NC(=O)Nc4cccc(C(=O)O)c4)cc3)cc2[nH]1`, the GI50 was 10.5 µM in the experiment on A549 NSCLC; 3.37 µM in the experiment with RXF 393 renal; 4.98 µM with A498 renal; 4 µM in the experiment with NCI-H522 lung; 6.49 µM with HCT-15 colon; 1.32 µM in the experiment with MDA-MB-435. The GI50 with CAKI-1 renal is above 23.8 µM; in the experiment on ACHN renal it was 16.9 µM. The TGI was above 25 µM with A549 NSCLC; 10.9 µM in the experiment on RXF 393 renal; above 25 µM with A498 renal; above 19 µM in the experiment on NCI-H522 lung; above 25 µM in the experiment with HCT-15 colon; 6.03 µM with MDA-MB-435. Moreover, the TGI with CAKI-1 renal and with ACHN renal was above 25 µM throughout.
Consider `Cn1cc(-c2nc(-c3c[nH]c4ncccc34)cs2)c2cc(F)ccc21`, for which the GI50 in the experiment on A549 NSCLC is 2.81 µM; in the experiment on RXF 393 renal it was 2.49 µM; in the experiment on A498 renal, 2.03 µM; with NCI-H522 lung, 2.7 µM; in the experiment on HCT-15 colon, 2.88 µM; in the experiment on MDA-MB-435 it was 1.12 µM. The GI50 was 2.2 µM in the experiment with CAKI-1 renal and 3.21 µM with ACHN renal. The TGI is above 25.6 µM in the experiment with A549 NSCLC; 9.14 µM in the experiment with RXF 393 renal; 7.48 µM with A498 renal; 9.89 µM in the experiment with NCI-H522 lung; above 45 µM in the experiment on HCT-15 colon; 4.88 µM with MDA-MB-435. For the same compound, the TGI with CAKI-1 renal amounted to 8.44 µM; in the experiment on ACHN renal it was 14.7 µM.
In the case of `O=C1NN(c2ccc(C(=O)O)cc2)C(=O)/C1=C\c1ccc([N+](=O)[O-])o1`, the GI50 in the experiment with A549 NSCLC is above 100 µM; in the experiment on RXF 393 renal it was 40.7 µM; in the experiment on A498 renal, above 100 µM; with NCI-H522 lung, 15.7 µM; in the experiment on HCT-15 colon it was 20.4 µM; with MDA-MB-435, 32.1 µM. Moreover, the GI50 was 16.1 µM in the experiment with CAKI-1 renal and 24.4 µM in the experiment on ACHN renal. The TGI was above 100 µM in the experiment on A549 NSCLC; above 100 µM in the experiment with RXF 393 renal; above 100 µM in the experiment on A498 renal; 32.8 µM with NCI-H522 lung; 45.4 µM in the experiment on HCT-15 colon; above 100 µM with MDA-MB-435. Also, the results for the TGI with CAKI-1 renal and with ACHN renal were 31.1 µM and 55.3 µM, respectively.
As for `COc1ccc2c(c1)C(=O)/C(=C/c1cccc(OCC(=O)Nc3nc4c(s3)CCCC4)c1)O2`, the GI50 with A549 NSCLC is 3.31 µM; in the experiment with RXF 393 renal, 0.583 µM; with A498 renal it was 14.3 µM; in the experiment on NCI-H522 lung it was 0.704 µM; with HCT-15 colon it was 1.54 µM; in the experiment on MDA-MB-435, 2.59 µM. In addition, the GI50 was 0.383 µM with CAKI-1 renal and 1.47 µM in the experiment on ACHN renal. Moreover, the TGI in the experiment with A549 NSCLC turned out to be 18.5 µM; in the experiment with RXF 393 renal, 1.58 µM; in the experiment with A498 renal it was 27.7 µM; in the experiment on NCI-H522 lung, 2.25 µM; in the experiment on HCT-15 colon, 3.19 µM; in the experiment on MDA-MB-435, 9.42 µM. Further, the results for the TGI in the experiment with CAKI-1 renal and with ACHN renal were 0.804 µM and 2.79 µM, respectively.
Take `COc1cc(O)c2c(O)c3c(c4c2c1[C@]1(C4)C(C)=CCCC1(C)C)[C@H](O)[C@@]1(O)CC(=O)C(C(N)=O)=C(O)[C@@]1(O)C3=O`: the TGI with A549 NSCLC stood at 1.38 µM; in the experiment with RXF 393 renal it was 2.13 µM; in the experiment on A498 renal, 0.743 µM; in the experiment with NCI-H522 lung, 0.332 µM; in the experiment with HCT-15 colon, 1.45 µM; in the experiment on MDA-MB-435, 1.2 µM. For the same compound, the TGI is 0.972 µM with CAKI-1 renal and 1.19 µM with ACHN renal.
